This note sets out measurements from patent US10106556B2, “Heterocyclic compound” (TAKEDA PHARMACEUTICAL COMPANY LIMITED, priority 2015, dated 2018).

For this test, the target named is T1, His-hMAGL (recombinant polyhistidine tagged human MAGL protein) (Homo sapiens, UniProt Q99685).
T1 construct: made in house; host or cells: E. coli BL21(DE3)
T1 sequence (Q99685 1-303): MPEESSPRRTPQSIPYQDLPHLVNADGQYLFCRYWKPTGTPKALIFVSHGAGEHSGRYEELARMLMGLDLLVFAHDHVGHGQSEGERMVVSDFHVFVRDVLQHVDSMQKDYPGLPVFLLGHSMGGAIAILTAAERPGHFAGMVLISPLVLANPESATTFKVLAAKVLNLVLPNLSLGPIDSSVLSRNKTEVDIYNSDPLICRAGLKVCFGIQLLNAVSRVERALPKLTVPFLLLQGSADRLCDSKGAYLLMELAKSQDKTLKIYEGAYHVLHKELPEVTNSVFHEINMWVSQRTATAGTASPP
The experiment in a line: Measurement of MAGL inhibitory activity (arachidonic acid production from 2-arachidonylglycerol, RapidFire-mass spectrometry). It is filed as biochemical. Particulars: MAGL inhibitory rate at 10 μM test compound; 60 min preincubation with His-hMAGL, 2-arachidonylglycerol substrate, 10 min reaction at room temperature. The method in brief:
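Recombinant His-tagged human MAGL converted 2-arachidonylglycerol to arachidonic acid. Reactions received acetonitrile with 3 μM arachidonic acid-d8 as internal standard, and product was quantified by RapidFire SPE (C4) with negative-mode SRM mass spectrometry. Percent inhibition was calculated against compound-free and enzyme-free controls.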
As to `CC(C)(O)c1cc(F)ccc1OCC1CCN(C(=O)c2cc3c(cc2F)OCC(=O)N3)CC1` [Example 91, 7-fluoro-6-((4-((4-fluoro-2-(2-hydroxypropan-2-yl)phenoxy)methyl)piperidin-1-yl)carbonyl)-2H-1,4-benzoxazin-3(4H)-one], the inhibition at 10 µM was 99%.
The figure for `O=C1COc2cc(F)c(C(=O)N3CC(COc4ccc(-c5ccnc(Cl)c5)cc4F)C3)cc2N1` [Example 241, 6-((3-((4-(2-chloropyridin-4-yl)-2-fluorophenoxy)methyl)azetidin-1-yl)carbonyl)-7-fluoro-2H-1,4-benzoxazin-3(4H)-one] is 101%; for `O=C1COc2cc(F)c(C(=O)N3CC(COc4ccc(-c5cncc(Cl)c5)cc4F)C3)cc2N1` [Example 235, 6-((3-((4-(5-chloropyridin-3-yl)-2-fluorophenoxy)methyl)azetidin-1-yl)carbonyl)-7-fluoro-2H-1,4-benzoxazin-3(4H)-one] it is 100%; for `Cc1ccc(OCC2CCN(C(=O)c3ccc4c(c3)NC(=O)CO4)CC2)c(C)c1` [Example 35, 6-((4-((2,4-dimethylphenoxy)methyl)piperidin-1-yl)carbonyl)-2H-1,4-benzoxazin-3(4H)-one] it is 98%.
The figure for `O=C1COc2cc(F)c(C(=O)N3CC(COc4ccc(Cl)cc4-c4cncc(Cl)c4)C3)cc2N1` [Example 201, 6-((3-((4-chloro-2-(5-chloropyridin-3-yl)phenoxy)methyl)azetidin-1-yl)carbonyl)-7-fluoro-2H-1,4-benzoxazin-3(4H)-one] is 101%.
The figure for `O=C1COc2cc(F)c(C(=O)N3CC(OCc4ccc(C(F)F)cc4F)C3)cc2N1` [Example 352, 6-((3-((4-(difluoromethyl)-2-fluorobenzyl)oxy)azetidin-1-yl)carbonyl)-7-fluoro-2H-1,4-benzoxazin-3(4H)-one] is 101%.
In the case of `Cc1ccc(OCC2CN(C(=O)c3cc4c(cc3F)OCC(=O)N4)C2)c(C)n1` [Example 141, 6-((3-(((2,6-dimethylpyridin-3-yl)oxy)methyl)azetidin-1-yl)carbonyl)-7-fluoro-2H-1,4-benzoxazin-3(4H)-one], the inhibition at 10 µM is 102%.
Turning to `Cc1cccc(OCC2CN(C(=O)c3cc4c(cc3F)OCC(=O)N4)C2)c1` [Example 162, 7-fluoro-6-((3-((3-methylphenoxy)methyl)azetidin-1-yl)carbonyl)-2H-1,4-benzoxazin-3(4H)-one], the inhibition at 10 µM stood at 102%.
For `O=C1COc2cc(F)c(C(=O)N3CC(COc4ccc(C(F)(F)F)cc4F)C3)cc2N1` [Example 188, 7-fluoro-6-((3-((2-fluoro-4-(trifluoromethyl)phenoxy)methyl)azetidin-1-yl)carbonyl)-2H-1,4-benzoxazin-3(4H)-one], the inhibition at 10 µM worked out at 97%.
The figure for `O=C1COc2ccc(C(=O)N3CCC(COc4ccc(Cl)cc4Cl)CC3)cc2N1` [Example 23, 6-((4-((2,4-dichlorophenoxy)methyl)piperidin-1-yl)carbonyl)-2H-1,4-benzoxazin-3(4H)-one] is 100%.
With `O=C1COc2ccc(C(=O)N3CCC(COc4ccccc4)CC3)cc2N1` [Example 12, 6-((4-(phenoxymethyl)piperidin-1-yl)carbonyl)-2H-1,4-benzoxazin-3(4H)-one] the figure was 99%; with `O=C1COc2cc(F)c(C(=O)N3CC(COc4ccc(-c5ccncc5Cl)cc4F)C3)cc2N1` [Example 243, 6-((3-((4-(3-chloropyridin-4-yl)-2-fluorophenoxy)methyl)azetidin-1-yl)carbonyl)-7-fluoro-2H-1,4-benzoxazin-3(4H)-one], 101%; with `Cn1nccc1-c1cc(Cl)ccc1OCC1CN(C(=O)c2cc3c(cc2F)OCC(=O)N3)C1` [Example 218, 6-((3-((4-chloro-2-(1-methyl-1H-pyrazol-5-yl)phenoxy)methyl)azetidin-1-yl)carbonyl)-7-fluoro-2H-1,4-benzoxazin-3(4H)-one], 99%.
With `Cc1cc(F)ccc1OCC1CN(C(=O)c2cc3c(cc2F)OCC(=O)N3)C1` [Example 120, 7-fluoro-6-((3-((4-fluoro-2-methylphenoxy)methyl)azetidin-1-yl)carbonyl)-2H-1,4-benzoxazin-3(4H)-one] the figure was 101%; with `O=C1COc2ncc(C(=O)N3CCC(COc4cccc(Cl)c4Cl)CC3)cc2N1` [Example 25, 7-((4-((2,3-dichlorophenoxy)methyl)piperidin-1-yl)carbonyl)-1H-pyrido[2,3-b][1,4]oxazin-2(3H)-one], 100%.
Consider `O=C1COc2cc(F)c(C(=O)N3CC(COc4ccc(C(F)(F)F)cc4Cl)C3)cc2N1` [Example 116, 6-((3-((2-chloro-4-(trifluoromethyl)phenoxy)methyl)azetidin-1-yl)carbonyl)-7-fluoro-2H-1,4-benzoxazin-3(4H)-one], for which the inhibition at 10 µM is 103%.
The figure for `N#Cc1cc(C(F)(F)F)ccc1OCC1CCN(C(=O)c2ccc3c(c2)NC(=O)C3)CC1` [Example 69, 2-((1-((2-oxo-2,3-dihydro-1H-indol-6-yl)carbonyl)piperidin-4-yl)methoxy)-5-(trifluoromethyl)benzonitrile] is 99%.
The figure for `O=C1COc2ccc(C(=O)N3CC(COc4ccc(F)cc4Cl)C3)cc2N1` [Example 78, 6-((3-((2-chloro-4-fluorophenoxy)methyl)azetidin-1-yl)carbonyl)-2H-1,4-benzoxazin-3(4H)-one] is 100%; for `O=C1COc2ccc(C(=O)N3CCC(COc4ccccc4F)CC3)cc2N1` [Example 94, 6-((4-((2-fluorophenoxy)methyl)piperidin-1-yl)carbonyl)-2H-1,4-benzoxazin-3(4H)-one] it is 97%; for `N#Cc1ccc(OCC2CCN(C(=O)c3ccc4c(c3)NC(=O)CO4)CC2)cc1` [Example 49, 4-((1-((3-oxo-3,4-dihydro-2H-1,4-benzoxazin-6-yl)carbonyl)piperidin-4-yl)methoxy)benzonitrile] it is 92%.
The figure for `O=C1COc2ccc(C(=O)N3CCC(COc4cc(Cl)cc(Cl)c4)CC3)cc2N1` [Example 45, 6-((4-((3,5-dichlorophenoxy)methyl)piperidin-1-yl)carbonyl)-2H-1,4-benzoxazin-3(4H)-one] is 98%.
For `O=C1COc2ccc(C(=O)N3CCC(COc4ccc(OC(F)(F)F)cc4)CC3)cc2N1` [Example 55, 6-((4-((4-(trifluoromethoxy)phenoxy)methyl)piperidin-1-yl)carbonyl)-2H-1,4-benzoxazin-3(4H)-one], the inhibition at 10 µM is 96%.
On to `O=C1COc2cc(F)c(C(=O)N3CC(COc4ccc(-c5cnn(C(F)F)c5)cc4F)C3)cc2N1` [Example 247, 6-((3-((4-(1-(difluoromethyl)-1H-pyrazol-4-yl)-2-fluorophenoxy)methyl)azetidin-1-yl)carbonyl)-7-fluoro-2H-1,4-benzoxazin-3(4H)-one], for which the inhibition at 10 µM amounted to 96%.
The figure for `CCc1ncccc1-c1cc(Cl)ccc1OCC1CN(C(=O)c2cc3c(cc2F)OCC(=O)N3)C1` [Example 199, 6-((3-((4-chloro-2-(2-ethylpyridin-3-yl)phenoxy)methyl)azetidin-1-yl)carbonyl)-7-fluoro-2H-1,4-benzoxazin-3(4H)-one] is 103%.
The figure for `O=C1COc2cc(F)c(C(=O)N3CC(COc4ccc5c(c4)OCC5)C3)cc2N1` [Example 273, 6-((3-((2,3-dihydro-1-benzofuran-6-yloxy)methyl)azetidin-1-yl)carbonyl)-7-fluoro-2H-1,4-benzoxazin-3(4H)-one] is 101%.
With `Cc1cccc(COC2CN(C(=O)c3cc4c(cc3F)OCC(=O)N4)C2)c1` [Example 329, 7-fluoro-6-((3-((3-methylbenzyl)oxy)azetidin-1-yl)carbonyl)-2H-1,4-benzoxazin-3(4H)-one], the inhibition at 10 µM is 100%.
With `Cc1nc(C)c(-c2ccc(OCC3CN(C(=O)c4cc5c(cc4F)OCC(=O)N5)C3)c(F)c2)s1` [Example 260, 6-((3-((4-(2,4-dimethyl-1,3-thiazol-5-yl)-2-fluorophenoxy)methyl)azetidin-1-yl)carbonyl)-7-fluoro-2H-1,4-benzoxazin-3(4H)-one] the figure was 100%.
The figure for `O=C1COc2ccc(C(=O)N3CC(OCc4ccc(Cl)cc4Cl)C3)cc2N1` [Example 325, 6-((3-((2,4-dichlorobenzyl)oxy)azetidin-1-yl)carbonyl)-2H-1,4-benzoxazin-3(4H)-one] is 101%.
Regarding `Cn1cccc1-c1ccc(OCC2CN(C(=O)c3cc4c(cc3F)OCC(=O)N4)C2)c(F)c1` [Example 255, 7-fluoro-6-((3-((2-fluoro-4-(1-methyl-1H-pyrrol-2-yl)phenoxy)methyl)azetidin-1-yl)carbonyl)-2H-1,4-benzoxazin-3(4H)-one], the inhibition at 10 µM was found to be 102%.
On to `O=C1COc2ccc(C(=O)N3CC(OCc4ccc(F)cc4Cl)C3)cc2N1` [Example 323, 6-((3-((2-chloro-4-fluorobenzyl)oxy)azetidin-1-yl)carbonyl)-2H-1,4-benzoxazin-3(4H)-one], for which the inhibition at 10 µM stood at 99%.
With `O=C1COc2cc(F)c(C(=O)N3CC(COc4ccc5c(c4)CCC5)C3)cc2N1` [Example 154, 6-((3-((2,3-dihydro-1H-inden-5-yloxy)methyl)azetidin-1-yl)carbonyl)-7-fluoro-2H-1,4-benzoxazin-3(4H)-one] the figure was 95%.

Usually inhibition stands for the drop in the measured response relative to a control, in per cent.
